# Results taken from DBAASP.
# Several values for one entry are separate records, joined by “and”; a condition that tells them apart may be missing. Equal entries are not always repeated.
# Tests used:
# Experiment in all cases: ≥ marks a high value that may be exact or a test limit, other limits are often not marked, values filed in µg/mL are converted to µM
# [1] = test system: Bacillus subtilis ATCC 6633
# Cryptococcus neoformans = test system: Cryptococcus neoformans
# [2] = test system: Staphylococcus aureus ATCC 29213
# [3] = test system: Staphylococcus aureus ATCC 33592
# [4] = test system: Staphylococcus aureus ATCC 25923
# [5] = test system: Klebsiella pneumoniae ATCC 27736
# [6] = test system: Escherichia coli ATCC 9637
# [7] = test system: Staphylococcus aureus ATCC BAA-44
# [8] = test system: Staphylococcus aureus ATCC 700699
# [9] = test system: Staphylococcus aureus ATCC 700698
# [10] = test system: Pseudomonas aeruginosa ATCC BAA-427
# [11] = test system: Candida parapsilosis ATCC 22019
# [12] = test system: Candida albicans ATCC 10231
# [13] = test system: Candida albicans ATCC MYA-2876
# [14] = test system: Candida tropicalis ATCC 750
# [15] = test system: Salmonella typhimurium ATCC 23565
# [16] = test system: Bacillus subtilis NRRL B-237
# Shigella flexneri CP87 = test system: Shigella flexneri CP87
# [17] = test system: Clavibacter michiganensis subsp. insidiosus NCPPB 1109
# [18] = test system: Serratia marcescens ATCC 17991
# [19] = test system: Agrobacterium tumefaciens DSM 3129
# [20] = test system: Salmonella enterica subsp. enterica serovar Newport
# [21] = test system: Brenneria salicis NCPPB 2530
# [22] = test system: Escherichia coli NCTC 9001
# [23] = test system: Paenibacillus alvei LMG 6922
# [24] = test system: Sinorhizobium meliloti ZB314
# [25] = test system: Pseudomonas syringae pv. tomato NCPPB 1106
# [26] = test system: Bacillus thuringiensis serovar tenebrionis DSM 2803
# [27] = test system: Bacillus megaterium QMB 1551
# [28] = test system: Escherichia coli ATCC 8739
# [29] = test system: Staphylococcus aureus HNCMO 112011
# [30] = test system: Acinetobacter baumannii ATCC 17978
# [31] = test system: Salmonella enterica subsp. enterica CMCC 47020
# [32] = test system: Listeria monocytogenes CMCC 54004
# [33] = test system: Bacillus cereus CMCC 6303
# [34] = test system: Salmonella enterica subsp. enterica serovar Pullorum C79-13
# [35] = test system: Salmonella enterica subsp. enterica serovar Typhimurium ATCC 14028
# [36] = test system: Salmonella enterica subsp. enterica serovar Typhi CMCC 50071
# [37] = test system: Salmonella enterica subsp. enterica serovar Typhimurium C77-31
# [38] = test system: Staphylococcus aureus CMCC 26074
# [39] = test system: Cronobacter sakazakii ATCC 29544
# Escherichia coli UB1005 = test system: Escherichia coli UB1005
# [40] = test system: Escherichia coli DSM 1116
# [41] = test system: Franconibacter helveticus DSM 18390
# [42] = test system: Staphylococcus xylosus DSM 20267
# [43] = test system: Bacillus subtilis DSM 347
structure (smiles),measurement,setting,value
CC[C@H](C)[C@H](NC(=O)[C@H](CCCN=C(N)N)NC(=O)CNC(=O)[C@H](CC(C)C)NC(=O)[C@H](CCCCN)NC(=O)[C@H](CCCCN)NC(=O)[C@H](CO)NC(=O)[C@H](Cc1ccccc1)NC(=O)[C@H](Cc1c[nH]c2ccccc12)NC(=O)[C@H](CCCCN)NC(=O)[C@@H](NC(=O)[C@@H](N)Cc1ccccc1)C(C)C)C(=O)N[C@@H](CC(C)C)C(N)=O [FVKWFSKKLGRIL],MIC,[1],15.2 µM
same,MIC,Cryptococcus neoformans,15 µM
same,MIC,[2],> 30 µM
same,MIC,[3],30 µM
same,MIC,[4],25 µM and 30 µM and 15.4 µM
same,MIC,[5],15 µM
same,MIC,[6],12.5 µM
same,MIC,[7],30 µM
same,MIC,[8],30 µM
same,MIC,[9],30 µM
same,MIC,[10],15 µM
same,MIC,[11],30 µM
same,MIC,[12],30 µM
CC[C@H](C)[C@H](NC(=O)[C@H](Cc1ccc(O)cc1)NC(=O)[C@@H](N)CCCN=C(N)N)C(=O)N[C@@H](Cc1ccc(O)cc1)C(=O)N[C@@H](CC(C)C)C(=O)N[C@@H](CO)C(=O)NCC(=O)N[C@H](C(=O)N[C@@H](CC(=O)O)C(=O)N[C@@H](CCCN=C(N)N)C(=O)N[C@H](C(=O)N[C@H](C(=O)N[C@@H](CCCN=C(N)N)C(=O)N[C@@H](C)C(=O)N[C@@H](CCCCN)C(=O)N[C@@H](CC(C)C)C(=O)NCC(=O)N[C@@H](CCCCN)C(=O)O)[C@@H](C)CC)[C@@H](C)CC)[C@@H](C)O [RYIYLSGTDRIIRAKLGK],MIC,[13],≥ 40 µM
same,MIC,[14],≥ 40 µM
CC[C@H](C)[C@H](NC(=O)[C@@H]1CCCN1C(=O)[C@H](CCCN=C(N)N)NC(=O)[C@H](CC(N)=O)NC(=O)[C@H](CC(N)=O)NC(=O)CN)C(=O)N[C@@H](Cc1ccc(O)cc1)C(=O)N[C@H](C(=O)N1CCC[C@H]1C(=O)N[C@@H](CCC(N)=O)C(=O)N1CCC[C@H]1C(=O)N[C@@H](CCCN=C(N)N)C(=O)N1CCC[C@H]1C(=O)N1CCC[C@H]1C(=O)N[C@@H](Cc1cnc[nH]1)C(=O)N1CCC[C@H]1C(=O)N[C@@H](CCCN=C(N)N)C(=O)N[C@@H](CC(C)C)C(=O)O)[C@@H](C)CC [GNNRPIYIPQPRPPHPRL],MIC,[15],0.0471 µM
same,MIC,[16],≥ 94.2 µM
same,MIC,Shigella flexneri CP87,0.0471 µM
same,MIC,[17],≥ 47.1 µM
same,MIC,[18],≥ 94.2 µM
same,MIC,[19],0.0942 µM
same,MIC,[20],0.0942 µM
same,MIC,[21],0.0094 µM
same,MIC,[22],0.0942 µM
same,MIC,[23],≥ 94.2 µM
same,MIC,[24],0.0094 µM
same,MIC,[25],0.0471 µM
same,MIC,[26],≥ 94.2 µM
same,MIC,[27],≥ 47.1 µM
CC(C)C[C@H](NC(=O)[C@@H]1CCCN1C(=O)[C@H](CCCN=C(N)N)NC(=O)[C@H](CCCN=C(N)N)NC(=O)[C@H](CS)NC(=O)[C@H](CCC(N)=O)NC(=O)[C@@H](N)CCC(N)=O)C(=O)N[C@@H](Cc1ccc(O)cc1)C(=O)N[C@@H](CS)C(=O)N[C@@H](CCCN=C(N)N)C(=O)N[C@@H](CCCN=C(N)N)C(=O)N[C@@H](CCCN=C(N)N)C(=O)N[C@@H](Cc1c[nH]c2ccccc12)C(=O)N[C@@H](CO)C(=O)N[C@@H](Cc1cnc[nH]1)C(=O)N1CCC[C@H]1C(=O)N[C@@H](CCC(N)=O)C(=O)N[C@@H](Cc1ccccc1)C(=O)N[C@@H](CCC(=O)O)C(=O)N[C@@H](CCCCN)C(=O)O [QQCRRPLYCRRRWSHPQFEK],MIC,[28],25 µM
same,MIC,[29],25 µM
same,MIC,[30],25 µM
CC[C@H](C)[C@H](NC(=O)[C@H](CCCN=C(N)N)NC(=O)[C@H](CCCN=C(N)N)NC(=O)[C@H](Cc1c[nH]c2ccccc12)NC(=O)[C@@H](N)CCCN=C(N)N)C(=O)N[C@H](C(=O)N[C@H](C(=O)N[C@H](C(=O)N[C@@H](CCCN=C(N)N)C(=O)N[C@H](C(=O)N[C@@H](CCCN=C(N)N)C(=O)N[C@@H](CCCN=C(N)N)C(N)=O)C(C)C)[C@@H](C)CC)C(C)C)C(C)C [RWRRIVVIRVRR],MIC,[4],256 µM
same,MIC,[31],≥ 128 µM
same,MIC,[32],2 µM
same,MIC,[33],≥ 64 µM
same,MIC,[34],≥ 32 µM
same,MIC,[35],32 µM
same,MIC,[36],8 µM
same,MIC,[37],≥ 32 µM
same,MIC,[38],≥ 64 µM
same,MIC,[39],16 µM
same,MIC,Escherichia coli UB1005,16 µM
CC(C)C[C@H](NC(=O)[C@H](CCCCN)NC(=O)[C@H](CC(C)C)NC(=O)[C@H](CCCCN)NC(=O)[C@H](CC(C)C)NC(=O)[C@@H](N)CCCCN)C(N)=O [KLKLKL],MIC,[40],≥ 345 µM
same,MIC,[41],≥ 345 µM
same,MIC,[42],≥ 345 µM
same,MIC,[43],≥ 345 µM
